Experimental data published in ChEMBL document CHEMBL3045133, “A 2D image-based method for modeling some c-Src tyrosine kinase inhibitors” (Med Chem Res, 2013).
pIC50: −log10 of the molar value.

Molecular target: Proto-oncogene tyrosine-protein kinase Src (Homo sapiens, UniProt P12931)
Assay: Inhibition of c-Src kinase (unknown origin)

Proto-oncogene tyrosine-protein kinase Src, sequence (P12931 2-536 limits assumed): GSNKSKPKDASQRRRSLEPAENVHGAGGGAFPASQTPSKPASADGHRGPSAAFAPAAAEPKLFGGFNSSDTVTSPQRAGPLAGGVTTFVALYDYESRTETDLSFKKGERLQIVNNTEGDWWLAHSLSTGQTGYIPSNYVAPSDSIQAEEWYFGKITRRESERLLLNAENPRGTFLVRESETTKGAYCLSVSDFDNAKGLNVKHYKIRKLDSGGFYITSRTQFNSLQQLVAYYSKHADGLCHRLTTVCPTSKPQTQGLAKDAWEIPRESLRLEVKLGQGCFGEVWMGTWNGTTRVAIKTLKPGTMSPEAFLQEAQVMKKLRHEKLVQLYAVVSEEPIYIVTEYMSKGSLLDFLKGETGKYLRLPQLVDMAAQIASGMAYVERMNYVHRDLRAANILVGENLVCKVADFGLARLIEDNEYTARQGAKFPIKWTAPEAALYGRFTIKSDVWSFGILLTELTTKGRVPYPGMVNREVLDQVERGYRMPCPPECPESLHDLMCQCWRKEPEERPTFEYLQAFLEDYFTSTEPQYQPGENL

**Q.** How did the pIC50 turn out when `Cc1ccccc1-c1cn(-c2ccccc2)c2ncnc(N)c12` was run?
**A.** 5.20
